These results are taken from ChEMBL document CHEMBL4602677, “Protective Effects of Compounds from Cimicifuga dahurica against Amyloid Beta Production in Vitro and Scopolamine-Induced Memory Impairment in Vivo” (J Nat Prod, 2020).

Active and inactive are the calls of the source. The calls are words filed in the database; no cut-off is given here.

The subject of series [1] is CHO. Description: Cytotoxicity against CHO cells stably expressing amyloid precursor protein at 2.5 to 10 uM after 24 hrs by MTT assay. It is filed as cell-based, Cricetulus griseus. The conditions noted are these: chinese hamster.
Series [2] deals with CHO. Kind of series: Inhibition of BACE1 in CHO cells stably expressing amyloid precursor protein assessed as sAPPbeta level at 10 uM after 24 hrs by Western blot analysis relative to control. It is filed as cell-based. The conditions noted are these: Cricetulus griseus.
Series [3] is described as follows: (§1) Inhibition of BACE1 in CHO cells stably expressing amyloid precursor protein assessed as reduction in sAPPbeta expression after 24 hrs by Western blot analysis. The conditions noted are these: Cricetulus griseus. It is filed as cell-based.
Series [4] relates to CHO. The description is as §1. It is filed as cell-based. The conditions noted are these: Cricetulus griseus.
A short description of series [5]: (§2) Inhibition of BACE1 in CHO cells stably expressing amyloid precursor protein after 24 hrs by Western blot analysis. It is filed as cell-based, Cricetulus griseus.
The test system of series [6] is CHO. Described as §2. Type of series: cell-based. The conditions noted are these: Cricetulus griseus.
The nature of series [7]: Inhibition of gamma secretase in CHO cells stably expressing amyloid precursor protein assessed as reduction in Abeta42 levels by ELISA. Type of series: cell-based. The note with it: Cricetulus griseus.
Series [8] relates to CHO. Kind of series: Inhibition of gamma secretase in CHO cells stably expressing amyloid precursor protein assessed as reduction in Abeta42 levels at 10 uM by ELISA relative to control. Type of series: cell-based. The conditions noted are these: Cricetulus griseus.
Series [9] deals with Mus musculus. Description: Neuroprotective activity against scopolamine-induced memory impairment in ICR mouse assessed as increase in hippocampal phosphorylated ERK level at 2.5 to 5 mg/kg, po administered for 7 days by Western blot analysis. Type of series: functional, organism-based.
The test system of series [10] is Mus musculus. Kind of series: Cognitive enhancing effect in ICR mouse model of scopolamine-Induced memory impairment assessed as time spent in target quadrant at 5 mg/kg, po administered for 7 days and measured on day 6 by Morris water maze test (reference value: 14.48 +/- 1.6 secs). Type of series: functional.
For series [11], the system named is Mus musculus. Description: Reversal of scopolamine-induced amnesic effect in ICR mouse assessed as step-through latecy time at 2.5 mg/kg, po administered for 7 days followed by scopolamine challenge 30 mins prior to test by passive avoidance test (reference value: 10.80 +/- 4.1 secs). It is filed as functional.
Series [12] deals with Mus musculus. Kind of series: Cognitive enhancing effect in ICR mouse model of scopolamine-Induced memory impairment assessed as escape latency time at 5 mg/kg, po administered for 7 days and measured after 60 mins at first day of training session by Morris water maze test (reference value: 84.5 +/- 4.6 secs). Type of series: functional.
The test system of series [13] is Mus musculus. Description: Suppression of AChE in ICR mouse model of scopolamine-induced memory impairment assessed as reduction in protein activity in hippocampus at 5 mg/kg,po administered for 7 days by Ellman's method. Type of series: functional, organism-based.
The subject of series [14] is Mus musculus. Description: Neuroprotective activity against scopolamine-induced memory impairment in ICR mouse assessed as increase in cortical phosphorylated CREB level at 1.25 to 2.5 mg/kg, po administered for 7 days by Western blot analysis. Type of series: functional, organism-based.
The test system of series [15] is Mus musculus. Description: Reversal of scopolamine-induced amnesic effect in ICR mouse assessed as step-through latecy time at 5 mg/kg, po administered for 7 days followed by scopolamine challenge 30 mins prior to test by passive avoidance test (reference value: 10.80 +/- 4.1 secs). Type of series: functional.
Series [16] has as its system Mus musculus. Description: Cognitive enhancing effect in po dosed ICR mouse model of scopolamine-Induced memory impairment assessed as increase in time spent in target quadrant administered for 7 days and measured on day 6 by Morris water maze test. It is filed as functional, organism-based.
Series [17] concerns Mus musculus. Kind of series: Cognitive enhancing effect in ICR mouse model of scopolamine-Induced memory impairment assessed as escape latency time at 2.5 mg/kg, po administered for 7 days and measured after 60 mins at 5th day of training session by Morris water maze test (reference value: 77.5 +/- 6.6 secs). Type of series: functional.
The subject of series [18] is Mus musculus. Kind of series: Cognitive enhancing effect in ICR mouse model of scopolamine-induced short-term memory impairment assessed as increase in spontaneous alteration at 5 mg/kg, po administered for 7 days followed by scopolamine challenge 30 mins prior to test by Y-maze test. It is filed as functional.
The subject of series [19] is Mus musculus. Kind of series: Neuroprotective activity against scopolamine-induced memory impairment in ICR mouse assessed as increase in cortical phosphorylated AKT level at 5 mg/kg, po administered for 7 days by Western blot analysis. Type of series: functional, organism-based.
Series [20] deals with Mus musculus. Kind of series: Reversal of scopolamine-induced amnesic effect in ICR mouse assessed as step-through latecy time at 1.25 mg/kg, po administered for 7 days followed by scopolamine challenge 30 mins prior to test by passive avoidance test (reference value: 10.80 +/- 4.1 secs). Type of series: functional.
Series [21] deals with Mus musculus. Kind of series: Memory improvement effect in ICR mouse model of scopolamine-induced memory impairment assessed as discrimination index at 2.5 mg/kg, po administered for 7 days followed by scopolamine challenge 30 mins prior to test by object recognition test (reference value: 60.14 +/- 2.1%). Type of series: functional.
Series [22] has as its system Mus musculus. Kind of series: Cognitive enhancing effect in ICR mouse model of scopolamine-Induced memory impairment assessed as escape latency time at 2.5 mg/kg, po administered for 7 days and measured after 60 mins at first day of training session by Morris water maze test (reference value: 84.5 +/- 4.6 secs). It is filed as functional.
Series [23] concerns Mus musculus. Description: Cognitive enhancing effect in ICR mouse model of scopolamine-Induced memory impairment assessed as time spent in target quadrant at 2.5 mg/kg, po administered for 7 days and measured on day 6 by Morris water maze test (reference value: 14.48 +/- 1.6 secs). It is filed as functional.
The subject of series [24] is Mus musculus. Description: Cognitive enhancing effect in ICR mouse model of scopolamine-Induced memory impairment assessed as escape latency time at 5 mg/kg, po administered for 7 days and measured after 60 mins at 5th day of training session by Morris water maze test (reference value: 77.5 +/- 6.6 secs). Type of series: functional.
The test system of series [25] is Mus musculus. Description: Neuroprotective activity against scopolamine-induced memory impairment in ICR mouse assessed as increase in hippocampal phosphorylated AKT level at 2.5 to 5 mg/kg, po administered for 7 days by Western blot analysis. It is filed as functional, organism-based.
The test system of series [26] is Mus musculus. Kind of series: Memory improvement effect in ICR mouse model of scopolamine-induced memory impairment assessed as discrimination index at 5 mg/kg, po administered for 7 days followed by scopolamine challenge 30 mins prior to test by object recognition test (reference value: 60.14 +/- 2.1%). Type of series: functional.
Series [27] has as its system Mus musculus. Kind of series: Neuroprotective activity against scopolamine-induced memory impairment in ICR mouse assessed as increase in hippocampal phosphorylated CREB level at 5 mg/kg, po administered for 7 days by Western blot analysis. It is filed as functional, organism-based.
The test system of series [28] is Mus musculus. Kind of series: Neuroprotective activity against scopolamine-induced memory impairment in ICR mouse assessed as increase in cortical phosphorylated ERK level at 1.25 to 5 mg/kg, po administered for 7 days by Western blot analysis. Type of series: functional, organism-based.
For series [29], the system named is Mus musculus. Description: Cognitive enhancing effect in ICR mouse model of scopolamine-Induced memory impairment assessed as time spent in target quadrant at 1.25 mg/kg, po administered for 7 days and measured on day 6 by Morris water maze test (reference value: 14.48 +/- 1.6 secs). It is filed as functional.

As for `COC(C)(C)[C@H]1O[C@@]23O[C@@H]1C[C@@H](C)[C@@H]2[C@@]1(C)CC[C@@]24C[C@@]25CC[C@H](O[C@@H]2OC[C@@H](O)[C@H](O)[C@H]2O)C(C)(C)[C@@H]5CC=C4[C@]1(C)[C@H]3O`, the Activity entry with CHO [1] is “Non-Toxic”. Further, the inhibition in the series with CHO [2] is 20%; with CHO [4], “Dose-dependent effect”; in the series on CHO [6], “Dose-dependent effect”; in the series with CHO [8], 48.9%. Moreover, the IC50 came to 7.1 µM in series [3], 8.1 µM in series [5] and 10.1 µM in series [7].
Consider `CC(=O)O[C@@H]1[C@H](O)[C@@H](O)[C@H](O[C@H]2CC[C@]34C[C@]35CC[C@]3(C)[C@H]6[C@H](C)C[C@H]([C@@H](OC(C)=O)C(C)(C)O)O[C@@]6(O)[C@H](O)[C@@]3(C)C5=CC[C@H]4C2(C)C)O[C@@H]1CO`, for which the Activity entry in the series on CHO [1] is “Non-Toxic”. In addition, the IC50 is 8.3 µM in series [3], 7.8 µM in series [5] and 14.4 µM in series [7]. The inhibition result with CHO [4] was “Dose-dependent effect”; in the series with CHO [6], “Dose-dependent effect”; in the series with CHO [8], 34.7%.
For `CC(=O)O[C@H]([C@H]1C[C@@H](C)[C@H]2[C@@](O)(O1)[C@H](O)[C@@]1(C)C3=CC[C@H]4C(C)(C)[C@@H](O[C@@H]5OC[C@@H](O)[C@H](O)[C@H]5O)CC[C@@]45C[C@@]35CC[C@]21C)C(C)(C)O`, the result in the series on Mus musculus [9], in the series on Mus musculus [13], in the series with Mus musculus [14], with Mus musculus [19], with Mus musculus [25] and in the series with Mus musculus [27] was Active. The outcome in the series with Mus musculus [28] was Active. The Time came out at 25.86 s in the series on Mus musculus [10]; 28.8 s in the series on Mus musculus [11]; 76 s with Mus musculus [12]; 46.9 s in the series with Mus musculus [15]; 49.4 s in the series with Mus musculus [17]; 14.5 s in the series on Mus musculus [20]. In addition, the Time with Mus musculus [22] was determined as 80.7 s; in the series with Mus musculus [23], 20.4 s; in the series with Mus musculus [24] it was 48.1 s; in the series with Mus musculus [29], 18.43 s. Moreover, the Activity entry was “Dose-dependent effect” with Mus musculus [16]; “Non-Toxic” with CHO [1]; 11.6% with Mus musculus [18]; 64.29% in the series on Mus musculus [21]; 68% in the series on Mus musculus [26]. Also, the inhibition with CHO [2] was 20%; with CHO [4], “Dose-dependent effect”; with CHO [6], “Dose-dependent effect”; with CHO [8], 61.7%. Further, the IC50 in series [3] is 6.1 µM; in series [5], 7.1 µM; in series [7] it was 8.1 µM.
`C[C@@H]1C[C@H]([C@@H](O)C(C)(C)O)O[C@H]2C(=O)[C@@]3(C)C4=C(CC[C@]3(C)[C@@H]12)C[C@]12CC[C@H](O1)C(C)(C)[C@@H]2CC4`: the Activity result in the series on CHO [1] is “Non-Toxic”. Moreover, the inhibition with CHO [2] is 20%; in the series with CHO [4], “Dose-dependent effect”; in the series on CHO [6] it was “Dose-dependent effect”; with CHO [8], 80.6%. Moreover, the values for the IC50 in series [3], in series [5] and in series [7] were 4.3 µM, 6.2 µM and 6.2 µM, respectively.
